# According to EP2998294A1, “Naphthyl sulfonamide phenyl derivatives as KEAP-1 modulators for the treatment of diabetes, obesity, dyslipidemia and related disorders” (SANOFI, priority 2014, dated 2016):
# Biological target: T1, human Keap1 kelch domain (amino acids Ala321-Thr609) (Homo sapiens, UniProt Q14145)
# T1 construct: human Keap1 kelch domain (amino acids Ala321-Thr609)
# Assay: Keap1-Nrf2 peptide binding assay (fluorescence polarisation)
# Details: not given
# Protocol: A fluorescence polarisation assay was used to measure binding of the human Keap1 kelch domain (amino acids Ala321-Thr609) to a fluorescently labeled peptide containing a Keap1 binding site of human Nrf2 (Alexa633-AFFAQLQLDEETGEFL; JPT Technologies, Berlin, Germany). Two microliters of test compound in reaction buffer (phosphate-buffered saline, 2 mM DL-dithiothreitol, 0.015 % (v/v) Brij-35) containing 6 % (v/v) DMSO were mixed with two microliters of the Keap1 kelch domain in reaction buffer in a black 384-well small volume microtiter plate and incubated at ambient temperature for 15 minutes. Thereafter, two microliters were added of the fluorescently labeled Nrf2 peptide in reaction buffer, and the mixture was incubated for a further 30 minutes at ambient temperature. Final concentrations of the Keap1 kelch domain and the fluorescently labeled Nrf2 peptide were 20 nM and 50 nM, respectively.
# Fluorescence polarization (FP) was measured at excitation and emission wavelengths of 635 nm and 660 nm, respectively. Positive controls for binding (two microliters of reaction buffer containing 6 % (v/v) DMSO instead of test compound in the same buffer) and negative controls (as positive controls, but without Keap1 kelch domain) were included on each microtiter plate. Data were expressed as percent-inhibition values: percentinhibition = 100⋅(1-(|FPcompound-FPnegative controle|)/(|FPpositive controle-FPnegative controle|)) [formula]
# IC50 values were determined by testing different compound concentrations and fitting the resulting percent-inhibition values to the following equation using XLFit4: percentinhibition = A + (B-A)/(1 + (((IC50)/([Compound])))^D) [formula]
# Parameter A was set to zero, pre-fit values for parameters B and D were set to 100 and 1, respectively.
# T1 sequence (Q14145 321-609): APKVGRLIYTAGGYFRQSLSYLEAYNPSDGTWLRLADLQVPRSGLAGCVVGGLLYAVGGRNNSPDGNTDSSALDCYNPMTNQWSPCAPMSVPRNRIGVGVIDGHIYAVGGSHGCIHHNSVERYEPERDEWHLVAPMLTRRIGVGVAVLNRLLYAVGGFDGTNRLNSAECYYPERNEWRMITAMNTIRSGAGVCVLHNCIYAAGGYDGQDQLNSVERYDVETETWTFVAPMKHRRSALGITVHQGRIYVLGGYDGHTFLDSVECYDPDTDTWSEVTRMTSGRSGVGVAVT
row,SMILES,IC50
1,"O=C1Cc2cc(S(=O)(=O)Nc3ccc(-c4cccc(C(=O)O)c4)c4ccccc34)ccc2N1 [Example 51, [4-[(2-oxoindolin-5-yl)sulfonylamino]-1-naphthyl]benzoic acid]",7800 nM

# Same assay, conditions: binding of Keap1 kelch domain (20 nM) to fluorescently labeled Nrf2 peptide (50 nM)
row,SMILES,IC50
1,"O=C(O)c1cccc(-c2ccc(NS(=O)(=O)c3ccc(Cl)c(C(F)(F)F)c3)c3ccccc23)c1 [Example 37, [4-[[4-chloro-3-(trifluoromethyl)phenyl]sulfonylamino]-1-naphthyl]benzoic acid]",4000 nM
2,"O=C(O)c1cccc(-c2ccc(NS(=O)(=O)c3ccc(OC(F)(F)F)c(Cl)c3)c3ccccc23)c1 [Example 38, 3-[4-[[3-chloro-4-(trifluoromethoxy)phenyl]sulfonylamino]-1-naphthyl]benzoic acid]",6800 nM
3,"O=C(O)c1cccc(-c2ccc(NS(=O)(=O)c3cc(Cl)c(F)cc3F)c3ccccc23)c1 [Example 40, 3-[4-[(5-chloro-2,4-difluorophenyl)sulfonylamino]-1-naphthyl]benzoic acid]",4400 nM
4,"Cc1ccc(Cl)cc1S(=O)(=O)Nc1ccc(-c2cccc(C(=O)O)c2)c2ccccc12 [Example 41, 3-[4-[(5-chloro-2-methylphenyl)sulfonylamino]-1-naphthyl]benzoic acid]",1400 nM
5,"O=C(O)c1cccc(-c2ccc(NS(=O)(=O)c3cc(F)cc(F)c3F)c3ccccc23)c1 [Example 42, 3-[4-[(2,3,5-trifluorophenyl)sulfonylamino]-1-naphthyl]benzoic acid]",6400 nM
6,"CN1CCOc2cc(S(=O)(=O)Nc3ccc(-c4cccc(C(=O)O)c4)c4ccccc34)ccc21 [Example 43, 3-[4-[(4-methyl-2,3-dihydro-1,4-benzoxazin-7-yl)sulfonylamino]-1-naphthyl]benzoic acid]",1600 nM
7,"O=C(O)c1cccc(-c2ccc(NS(=O)(=O)c3ccc4ncsc4c3)c3ccccc23)c1 [Example 44, 3-[4-(1,3-benzothiazol-6-ylsulfonylamino)-1-naphthyl]benzoic acid]",3800 nM
8,"Cc1c(Cl)cc(F)cc1S(=O)(=O)Nc1ccc(-c2cccc(C(=O)O)c2)c2ccccc12 [Example 46, 3-[4-[(3-chloro-5-fluoro-2-methylphenyl)sulfonylamino]-1-naphthyl]benzoic acid]",2100 nM
9,"Cc1cc(NC(=O)c2ccccc2)ccc1S(=O)(=O)Nc1ccc(-c2cccc(C(=O)O)c2)c2ccccc12 [Example 47, 3-[4-[(4-benzamido-2-methylphenyl)sulfonylamino]-1-naphthyl]benzoic acid]",5000 nM
10,"O=C(O)c1cccc(-c2ccc(NS(=O)(=O)c3cc(Cl)cc(Cl)c3)c3ccccc23)c1 [Example 48, 3-[4-[(3,5-dichlorophenyl)sulfonylamino]-1-naphthyl]benzoic acid]",2300 nM
11,"O=C(O)c1cccc(-c2ccc(NS(=O)(=O)c3cc(Cl)sc3Cl)c3ccccc23)c1 [Example 49, 3-[4-[(2,5-dichloro-3-thienyl)sulfonylamino]-1-naphthyl]benzoic acid]",1700 nM
12,"O=C(O)c1cccc(-c2ccc(NS(=O)(=O)c3c(Cl)cc(C(F)(F)F)cc3Cl)c3ccccc23)c1 [Example 52, 3-[4-[[2,6-dichloro-4-(trifluoromethyl)phenyl]sulfonylamino]-1-naphthyl]benzoic acid]",1400 nM
13,"Cc1ccc(C#N)c(S(=O)(=O)Nc2ccc(-c3cccc(C(=O)O)c3)c3ccccc23)c1 [Example 53, 3-[4-[(2-cyano-5-methylphenyl)sulfonylamino]-1-naphthyl]benzoic acid]",6700 nM
14,"O=C(O)c1cccc(-c2ccc(NS(=O)(=O)c3cc(Cl)ccc3Cl)c3ccccc23)c1 [Example 54, 3-[4-[(2,5-dichlorophenyl)sulfonylamino]-1-naphthyl]benzoic acid]",3700 nM
15,"Cc1cc(Cl)c(C)c(S(=O)(=O)Nc2ccc(-c3cccc(C(=O)O)c3)c3ccccc23)c1Cl [Example 57, 3-[4-[(2,5-dichloro-3,6-dimethylphenyl)sulfonylamino]-1-naphthyl]benzoic acid]",600 nM
16,"O=C(O)c1ccc(F)c(-c2ccc(NS(=O)(=O)c3cccc(Cl)c3Cl)c3ccccc23)c1 [Example 74, 3-[4-[(2,3-dichlorophenyl)sulfonylamino]-1-naphthyl]-4-fluoro-benzoic acid]",900 nM

# Same assay, conditions: binding of Keap1 kelch domain (20 nM) to fluorescently labeled Nrf2 peptide (50 nM); read-out: IC50
row,IC50,SMILES
1,2800 nM,"Cc1nc(-c2ccccc2)sc1S(=O)(=O)Nc1ccc(-c2cccc(C(=O)O)c2)c2ccccc12 [Example 39, 3-[4-[(4-methyl-2-phenyl-thiazol-5-yl)sulfonylamino]-1-naphthyl]benzoic acid]"
2,2500 nM,"Cc1cc(NC(=O)N2CCOCC2)ccc1S(=O)(=O)Nc1ccc(-c2cccc(C(=O)O)c2)c2ccccc12 [Example 45, 3-[4-[[2-methyl-4-(morpholine-4-carbonylamino)phenyl]sulfonylamino]-1-naphthyl]benzoic acid]"
3,1600 nM,"Cc1nn(-c2ccccc2)c(C)c1S(=O)(=O)Nc1ccc(-c2cccc(C(=O)O)c2)c2ccccc12 [Example 50, 3-[4-[(3,5-dimethyl-1-phenyl-pyrazol-4-yl)sulfonylamino]-1-naphthyl]benzoic acid]"
4,4300 nM,"O=C(O)c1cccc(-c2ccc(NS(=O)(=O)c3ccc4c(c3)OCCO4)c3ccccc23)c1 [Example 55, 3-[4-(2,3-dihydro-1,4-benzodioxin-6-ylsulfonylamino)-1-naphthyl]benzoic acid]"
5,300 nM,"Cc1nn(C)c(Cl)c1S(=O)(=O)Nc1ccc(-c2cc(C(=O)O)ccc2F)c2ccccc12 [Example 56, 3-[4-[(5-chloro-1,3-dimethyl-pyrazol-4-yl)sulfonylamino]-1-naphthyl]-4-fluorobenzoic acid]"
6,4600 nM,"Cc1cc(S(=O)(=O)Nc2ccc(-c3cccc(C(=O)O)c3)c3ccccc23)c(C)o1 [Example 58, 3-[4-[(2,5-dimethyl-3-furyl)sulfonylamino]-1-naphthyl]benzoic acid]"
7,46000 nM,"CCCCCCCCc1cc(-c2cccc(C(=O)O)c2)c2ccccc2c1NS(=O)(=O)c1c(C)c(C)cc(C)c1C [Example 59, 3-[3-octyl-4-[(2,3,5,6-tetramethylphenyl)sulfonylamino]-1-naphthyl]benzoic acid]"
8,900 nM,"O=C(O)c1cccc(-c2ccc(NS(=O)(=O)c3c(Cl)nc4sccn34)c3ccccc23)c1 [Example 60, 3-[4-[(6-chloroimidazo[2,1-b]thiazol-5-yl)sulfonylamino]-1-naphthyl]benzoic acid]"
9,500 nM,"Cc1ccc2c(NS(=O)(=O)c3c(C)c(C)cc(C)c3C)ccc(-c3cc(C(=O)O)ccc3F)c2n1 [Example 61, 4-fluoro-3-[2-methyl-5-[(2,3,5,6-tetramethylphenyl)sulfonylamino]-8-quinolyl]benzoic acid; 2,2,2-trifluoroacetic acid]"
10,700 nM,"CCCCn1cc(S(=O)(=O)Nc2ccc(-c3cccc(C(=O)O)c3)c3ccccc23)c(C)n1 [Example 62, 3-[4-[(1-butyl-3-methyl-pyrazol-4-yl)sulfonylamino]-1-naphthyl]benzoic acid]"
11,3200 nM,"CCCn1ncc(S(=O)(=O)Nc2ccc(-c3cccc(C(=O)O)c3)c3ccccc23)c1C [Example 63, 3-[4-[(5-methyl-1-propyl-pyrazol-4-yl)sulfonylamino]-1-naphthyl]benzoic acid]"
12,4500 nM,"Cc1nn(CC(C)C)cc1S(=O)(=O)Nc1ccc(-c2cccc(C(=O)O)c2)c2ccccc12 [Example 64, 3-[4-[(1-isobutyl-3-methyl-pyrazol-4-yl)sulfonylamino]-1-naphthyl]benzoic acid]"
13,1800 nM,"Cc1c(S(=O)(=O)Nc2ccc(-c3cccc(C(=O)O)c3)c3ccccc23)cnn1C1CCCC1 [Example 67, 3-[4-[(1-cyclopentyl-5-methyl-pyrazol-4-yl)sulfonylamino]-1-naphthyl]benzoic acid]"
14,2400 nM,"Cc1c(S(=O)(=O)Nc2ccc(-c3cccc(C(=O)O)c3)c3ccccc23)cnn1CC(C)C [Example 68, 3-[4-[(1-isobutyl-5-methyl-pyrazol-4-yl)sulfonylamino]-1-naphthyl]benzoic acid]"
15,2600 nM,"CCCCn1cc(S(=O)(=O)Nc2ccc(-c3cc(C(=O)O)ccc3F)c3ccccc23)c(C)n1 [Example 70, 3-[4-[(1-butyl-3-methyl-pyrazol-4-yl)sulfonylamino]-1-naphthyl]-4-fluorobenzoic acid]"
16,22000 nM,"CCCCn1cc(S(=O)(=O)Nc2ccc(-c3cccc(C(=O)O)c3)c3nc(C)ccc23)c(C)n1 [Example 71, 3-[5-[(1-butyl-3-methyl-pyrazol-4-yl)sulfonylamino]-2-methyl-8-quinolyl]benzoic acid]"
17,1400 nM,"CCCn1ncc(S(=O)(=O)Nc2ccc(-c3cc(C(=O)O)ccc3F)c3ccccc23)c1C [Example 72, 4-fluoro-3-[4-[(5-methyl-1-propyl-pyrazol-4-yl)sulfonylamino]-1-naphthyl]benzoic acid]"
18,7700 nM,"Cc1ccc(S(=O)(=O)Nc2ccc(-c3cccc(C(=O)O)c3)c3ccccc23)c(Cl)n1 [Example 73, 3-[4-[(2-chloro-6-methyl-3-pyridyl)sulfonylamino]-1-naphthyl]benzoic acid]"
